The source of these data is patent US9353087B2, “Inhibitors of Bruton's tyrosine kinase” (Biogen Idec MA Inc., priority 2012, dated 2016).

The target in one experiment is T1, BTK (Homo sapiens, UniProt Q06187).
T1 construct: purchased Upstate 14-552
Description: In vitro BTK kinase assay: BTK-POLYGAT-LS assay. The experiment is classed as biochemical. Conditions: ATP 10 uM, polyGAT 100 nM, BTK 0.25 nM, 30 minutes. Here is the method: In vitro BTK kinase assay: BTK-POLYGAT-LS ASSAY. The purpose of the BTK in vitro assay was to determine compound potency against BTK through the measurement of IC50. Compound inhibition was measured after monitoring the amount of phosphorylation of a fluorescein-labeled polyGAT peptide (Invitrogen PV3611) in the presence of active BTK enzyme (Upstate 14-552), ATP, and inhibitor. The BTK kinase reaction was done in a black 96 well plate (costar 3694). For a typical assay, a 24 uL aliquot of an ATP/peptide master mix (final concentration; ATP 10 uM, polyGAT 100 nM) in kinase buffer (10 mM Tris-HCl pH 7.5, 10 mM MgCl2, 200 uM […], 5 mM DTT, 0.01% Triton X-100, and 0.2 mg/ml casein) was added to each well. Next, 1 uL of a 4-fold, 40× compound titration in 100% DMSO solvent was added, followed by adding 15 uL of BTK enzyme mix in 1× kinase buffer (with a final concentration of 0.25 nM). The assay was incubated for 30 minutes before being stopped with 28 uL of a 50 mM EDTA solution. Aliquots (5 uL) of the kinase reaction were transferred to a low volume white 384 well plate (Corning 3674), and 5 uL of a 2× detection buffer (Invitrogen PV3574, with 4 nM Tb—PY20 antibody, Invitrogen PV3552) was added. […] Time resolved fluorescence (TRF) on Molecular Devices M5 (332 nm excitation; 488 nm emission; 518 nm fluorescein emission) was measured.

In experiment [1] the target is T2, hERG (human ether-à-go-go-related gene) potassium channel (Homo sapiens, UniProt Q12809).
T2 construct: host or cells: HEK293
Put plainly: FastPatch/QPatch hERG inhibition assay in HEK293 cells. Conditions: HEK293 cells stably transfected with hERG cDNA, QPatch HT, IC50 estimated from hERG inhibition data. The class given is cell-based. The text has this:
The in vitro effects of provided compounds was investigated on the hERG (human ether-à-go-go-related gene) potassium channel current (a surrogate for IKr, the rapidly activating, delayed rectifier cardiac potassium current) expressed in human embryonic kidney (HEK293) cells stably transfected with hERG cDNA. Cells were placed in HEPES-buffered physiological saline solution in a glass-lined 96-well plate and loaded with appropriate amounts of test and control solutions for a duration of a 3-minute exposure at each concentration. Test compound was diluted in 0.3% DMSO. An automated parallel patch clamp system, QPatch HT (Sophion Bioscience A/S, Denmark), was used to evaluate at various concentrations (e.g., 10 μM). The IC50 values were estimated based on the hERG inhibition data. The study was performed at ChanTest (14656 Neo Parkway, Cleveland, Ohio). The QPatch screen is further described by Janzen and Bernasconi (eds.), High Throughput Screening, Methods and Protocols, Second Edition, vol. 565, chapter 10, pg. 209-223, 2009.

Experiment [2] concerns collagen induced arthritis (CIA) in female Lewis rats. Description: Rat collagen-induced arthritis model. The class given is in vivo. Conditions: oral gavage BID, therapeutic administration, read-out: Ankle histiopathology ED50. From the text:
The collagen induced arthritis (CIA) model in female Lewis rats requires primary T and B cell immune responses to type II collagen (CII) immunization for the development of a severe inflammatory disease (see Goldschmidt T J, Holmdahl R. Cell Immunol. 154(1):240-8, 1994; Helfgott, S. M., et al; Clin. Immunol. Immunopathol. 31:403, 1984; Holmdahl R. et al., J Autoimmun. 7(6):739-52, 1994; and Stuart, J. M., et al., J. Exp. Med. 155:1, 1982). Clinical disease onsets after a secondary CII challenge and the disease progresses over the following eight days.
Generally, female Lewis rats were immunized with bovine collagen type II in incomplete Freund's adjuvant. […] Clinical severity of arthritis was assessed by caliper measurements of ankles taken every day beginning on […].
Detailed protocol: Female Lewis rats were immunized subcutaneously with bovine collagen type II (1:1 emulsion of 2 mg/ml bovine CII in 0.01 N acetic acid: Incomplete Freund's Adjuvant) at three sites of back skin. […] Clinical severity of CIA was assessed by caliper measurements of ankles taken every day beginning on Day 9. […] Baseline ankle caliper measurements for established disease animals was assessed on day 1 of therapeutic dosing and animals were randomly assigned to treatment groups after confirmation of clinically disease onset (0.2751-0.2755 in). […]

Experiment [3] deals with PLCγ2 phosphorylation in Ramos cells. Description: BCR pathway activation: inhibition of phosphorylation of PLCγ2 in Ramos cells (electrochemiluminescence immunoassay). The class given is cell-based. As to conditions: Homo sapiens, 2 hours compound, 10 μg/mL anti-IgM for 5 minutes, R^2=0.90. Here is the method: Protocol: One day before treatment, Ramos cells were plated at a density of 3×10^5 cells per well in 200 μl, of complete medium in a 96-well tissue culture filter plates (Millipore, Billerica, Mass.). On the day of treatment, used medium was removed by filtration and the cells re-suspended in 200 μL serum free medium containing serial compound dilutions and DMSO to 0.1%, then incubated for 2 hours at 37° C. Cells were stimulated for 5 minutes with 10 μg/mL goat anti-human IgM at 37° C. […] After washing with TBST, MSD read buffer was added and the luminescence was measured in an MSD SECTOR Imager 6000. Maximum response was determined as the average luminescence in wells containing stimulated cells treated with anti-IgM and DMSO. Minimal response was determined as the average luminescence in wells containing unstimulated cells treated with DMSO alone. The maximal and minimal values were used to normalize luminescence in compound treatment wells. The normalized values were plotted against compound concentration on a log scale then analyzed using Prizm software (GraphPad Software, Inc.). […]

Another experiment concerns Human CD19+ B cells. Description: Inhibition of BCR (anti-IgM)-induced human B cell proliferation. Conditions: human CD19+ B cells from different donors, 10 μg/ml anti-IgM, 72 hours, CellTiter-Glo, read-out: IC50, anti-IgM-induced B cell cellular metabolism (proliferation). The experiment is classed as cell-based. Here is the method:
In this context, cellular metabolism directly correlates with cellular activation and proliferation, and can also reflect relative cell survival during proliferation. […] The results are shown graphically in FIG. 6.
Protocol: Human B cells were isolated from peripheral blood mononuclear cells or unpurified buffy coats using Ficoll-Hypaque gradients (Amersham) and negatively selected by magnetic cell sorting (Human B Cell Isolation Kit II, Miltenyi Biotec). Target cell purity was determined by flow cytometry by staining for markers of B cells, T cells and monocytes (CD19, CD3, CD14, respectively; BD Biosciences). Data was collected on a FACsCaliber flow cytometer and analyzed using FloJo software (BD Biosciences). […] Negatively selected human B cells were stimulated with 10 μg/mL anti-IgM F(ab′)2 (Jackson ImmunoResearch) in 96 well plates. […] B cells were stimulated for 72 hr at 37° C., 5% CO2. Proliferation was measured using the CellTiter-Glo reagent (Promega), as measured on a luminometer. Mean values were plotted against maximum proliferation and IC50 values were determine using GraphPad Prism v5 software.
(In general: ATP-based viability assays read luminescence as a measure of living cells.)

Experiment [4] has as its system TNFα expression by FcγR-activated primary human macrophages. Description: FcγR activation of primary human macrophages: TNFα expression. The class given is cell-based. As to conditions: Macrophage, human monocyte derived macrophages, plate-bound IgG. The text has this: (§1) FcγR activation of primary human macrophages. Autoantibody and immune-complex mediated activation through FcγR can be modeled by activation of macrophages with immobilized IgG. Primary human macrophages derived from GM-CSF treated monocytes up-regulate activation markers such as CD80, CD86, MHC antigens and the FcγRIII receptor. Human monocyte derived macrophages can be activated by plate-bound purified human IgG. This stimulation crosslinks the FcγRIII receptor and induces the secretion of pro-inflammatory cytokines such as TNFα, IL-6, IL 1β and MCP-1.
(§2) Generally, macrophages were cultured in plates previously incubated with purified IgG then washed. […] Cell culture supernatants were analyzed by ELISA for the expression of TNFα and IL-6.
(§3) Protocol: Human monocytes were isolated from buffy coats of healthy donors and negatively selected by magnetic cell sorting (Monocyte Isolation Kit II, Miltenyi Biotec). Purified monocytes were cultured in standard media supplemented with low-IgG FBS and 100 ng/mL GM-CSF for 5-7 days to induce macrophage differentiation. […] Supernatants were collected after 4 hrs and 18 hrs and analyzed for TNFα and IL-6, respectively.

The test system of experiment [5] is IL-6 expression by FcγR-activated primary human macrophages. Description: FcγR activation of primary human macrophages: IL-6 expression. The class given is cell-based. Conditions: Macrophage, human monocyte derived macrophages, plate-bound IgG.
Excerpt: as §1, §2, §3

The structures appear in SMILES notation. Read-outs that look alike come from different tables or passages of the source.

T2 sequence (Q12809 whole entry): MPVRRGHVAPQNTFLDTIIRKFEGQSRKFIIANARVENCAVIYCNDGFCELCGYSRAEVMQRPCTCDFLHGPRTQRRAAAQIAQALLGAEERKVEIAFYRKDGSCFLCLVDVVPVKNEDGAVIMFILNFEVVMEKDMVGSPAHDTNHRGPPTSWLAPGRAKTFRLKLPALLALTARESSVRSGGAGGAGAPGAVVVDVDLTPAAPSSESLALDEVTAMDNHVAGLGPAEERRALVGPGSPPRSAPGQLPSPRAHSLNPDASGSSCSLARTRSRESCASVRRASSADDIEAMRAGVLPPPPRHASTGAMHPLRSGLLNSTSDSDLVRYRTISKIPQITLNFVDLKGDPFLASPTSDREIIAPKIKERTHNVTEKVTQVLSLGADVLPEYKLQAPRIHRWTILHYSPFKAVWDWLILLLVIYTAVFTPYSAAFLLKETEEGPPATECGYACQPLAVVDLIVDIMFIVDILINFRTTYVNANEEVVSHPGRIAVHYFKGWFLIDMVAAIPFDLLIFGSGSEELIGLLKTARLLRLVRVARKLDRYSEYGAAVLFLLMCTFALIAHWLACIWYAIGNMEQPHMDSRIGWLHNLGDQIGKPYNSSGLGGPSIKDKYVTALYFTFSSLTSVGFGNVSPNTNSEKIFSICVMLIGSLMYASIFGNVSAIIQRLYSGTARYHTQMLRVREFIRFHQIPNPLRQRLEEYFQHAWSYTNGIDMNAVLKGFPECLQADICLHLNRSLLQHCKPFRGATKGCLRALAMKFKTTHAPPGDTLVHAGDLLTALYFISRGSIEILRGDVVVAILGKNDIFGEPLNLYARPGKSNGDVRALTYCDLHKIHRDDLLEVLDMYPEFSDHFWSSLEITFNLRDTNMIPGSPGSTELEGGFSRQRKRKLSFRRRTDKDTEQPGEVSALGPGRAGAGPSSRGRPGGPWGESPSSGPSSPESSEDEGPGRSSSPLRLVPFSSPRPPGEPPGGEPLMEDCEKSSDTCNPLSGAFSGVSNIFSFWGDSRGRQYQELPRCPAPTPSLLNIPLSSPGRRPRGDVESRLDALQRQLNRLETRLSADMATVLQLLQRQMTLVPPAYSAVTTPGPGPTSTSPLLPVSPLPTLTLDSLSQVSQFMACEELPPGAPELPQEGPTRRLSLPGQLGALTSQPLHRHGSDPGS
T1 sequence (Q06187 whole entry): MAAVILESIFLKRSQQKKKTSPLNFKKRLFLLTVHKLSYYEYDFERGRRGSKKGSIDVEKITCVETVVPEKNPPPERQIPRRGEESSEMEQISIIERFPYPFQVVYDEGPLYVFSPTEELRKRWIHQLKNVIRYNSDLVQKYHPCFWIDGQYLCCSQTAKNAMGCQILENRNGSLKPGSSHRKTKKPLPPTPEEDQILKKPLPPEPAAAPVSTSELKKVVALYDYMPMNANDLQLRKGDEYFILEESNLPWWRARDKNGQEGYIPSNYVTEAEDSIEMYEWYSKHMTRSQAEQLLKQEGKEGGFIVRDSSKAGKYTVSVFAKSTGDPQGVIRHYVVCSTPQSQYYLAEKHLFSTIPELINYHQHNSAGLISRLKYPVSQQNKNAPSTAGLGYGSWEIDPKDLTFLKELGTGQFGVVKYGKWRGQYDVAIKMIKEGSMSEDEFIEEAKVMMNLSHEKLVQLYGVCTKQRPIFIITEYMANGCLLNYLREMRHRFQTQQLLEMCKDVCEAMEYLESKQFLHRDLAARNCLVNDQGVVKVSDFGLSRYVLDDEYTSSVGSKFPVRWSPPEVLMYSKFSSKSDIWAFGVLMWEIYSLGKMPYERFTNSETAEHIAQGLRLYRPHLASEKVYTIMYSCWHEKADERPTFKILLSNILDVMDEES

In general, ED50 refers to the midpoint of the dose-response relation. One may read the EC50 as the concentration at which the effect is half-maximal. Consider `Nc1ncnc(N2CC[C@H](O)[C@@H](N3CCC[C@@H](Nc4cc(Cl)cc(C(F)(F)F)c4)C3=O)C2)c1F` [Compound I], for which the IC50 against BTK is 1.97 nM; in experiment [1], 9400 nM; with Human CD19+ B cells, 260 nM; in experiment [4] (ELISA (FIG. 7A), read-out: IC50 for inhibition of TNFα), 1080 nM; in experiment [4] (supernatants after 4 hrs, ELISA, read-out: IC50, inhibition of TNFα expression), 1100 nM; in experiment [5] (ELISA (FIG. 7B), read-out: IC50 for inhibition of IL-6), 350 nM. Further, the IC50 in experiment [5] (supernatants after 18 hrs, ELISA, read-out: IC50, inhibition of IL-6 expression) amounted to 350 nM. Also, in experiment [2], the ED50 was found to be 4.08 mg/kg. The same molecule had an EC50 in experiment [3] of 150 nM.
